In one assay the test system is F35T cells. Nature of the assay: Foci reduction in FECD (CAG10-Cy3 FISH, foci per nucleus). In kind it is cell-based. The settings on record: for pEC50: F35T cells, 48 h treatment, foci per nucleus, read-out: FECD EC50, 48 h; for EC50: 48 h, read-out: FECD EC50, 48 h (nM). The method, boiled down:
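Foci per nucleus were counted by imaging after overnight CAG10-Cy3 FISH at 37 °C (30% formamide, 2×SSC) with DAPI counterstain, on PFA-fixed, ethanol-permeabilized F35T cells. The cells, seeded at 5000 per well in supplemented Opti-MEM, had received 8-point compound dilutions for 48 h at 37 °C.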

Assay [1] deals with Myotonic Dystrophy 1 affected patient fibroblasts (Coriel GM04602; 1600 CTG repeats). Put plainly: DM1 foci reduction assay (EC50 assay; CAG10-Cy3 FISH, foci per nucleus). In kind it is cell-based. The settings on record: Homo sapiens, Fibroblast; for pEC50: DM1 patient fibroblasts, 48 h treatment, foci per nucleus, read-out: DM1 EC50, 48 h; for EC50: 48 h, read-out: DM1 EC50, 48 h (nM). The method, boiled down: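 Foci per nucleus counted by 20× imaging of 4 areas per well, after overnight FISH with 5 nM CAG10-Cy3 and DAPI staining of fixed, permeabilized cells. DM1 fibroblasts (GM04602, 1600 CTG) were dosed 48 h at 37 °C, 8 points, 3-fold dilutions, 3 μM top concentration.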

pEC50: −log10 of the molar value. Where two headings read alike, the source gives them in different places. A value given as a limit tells only on which side of the number the result lay.

Take `COC(=O)CCCN(CCCC(=O)OC)Cc1ncc(C2CN(C(=O)CCNC(=O)c3nc(NC(=O)c4cc(NC(=O)CCNC(=O)c5nc(NC(=O)CCCNC(=O)c6cc(NC(=O)c7nc(NC(=O)CCNC(=O)c8cc(NC(=O)c9nccn9C)cn8C)cn7C)cn6C)cn5C)cn4C)cn3C)C2)[nH]1` [Compound B-369]: the pEC50 in the assay with F35T cells is 6.30 to 7.00; in assay [1], < 6.00.

Regarding `COC(=O)CCCN(CCCC(=O)O)Cc1ncc(C2CN(C(=O)CCNC(=O)c3nc(NC(=O)c4cc(NC(=O)CCNC(=O)c5nc(NC(=O)CCCNC(=O)c6cc(NC(=O)c7nc(NC(=O)CCNC(=O)c8cc(NC(=O)c9nccn9C)cn8C)cn7C)cn6C)cn5C)cn4C)cn3C)C2)[nH]1` [Compound B-370], the pEC50 (in the assay with F35T cells; in assay [1]) was < 6.00 each time.

Consider `Cn1cc(NC(=O)c2nc(NC(=O)CCNC(=O)c3cc(NC(=O)c4nccn4C)cn3C)cn2C)cc1C(=O)NCCCC(=O)Nc1cn(C)c(C(=O)NCCC(=O)Nc2cc(C(=O)Nc3cn(C)c(C(=O)NCCC(=O)N4CC(c5cnc(CN(CCCC(=O)O)CCCC(=O)O)[nH]5)C4)n3)n(C)c2)n1` [Compound B-371], for which the pEC50 (in the assay on F35T cells; in assay [1]) was < 6.00 each time.

On to `CCCNC(=O)CCNC(=O)c1nc(NC(=O)c2cc(NC(=O)CCNC(=O)c3nc(NC(=O)CCCNC(=O)c4cc(NC(=O)c5nc(NC(=O)CCNC(=O)c6cc(NC(=O)c7nccn7C)cn6C)cn5C)cn4CCOCCNC(=O)OC(C)(C)C)cn3C)cn2C)cn1C` [Compound B-372], for which the pEC50 (in the assay on F35T cells; in assay [1]) was > 7.00 in each case.

As to `CCOC(=O)c1nc(NC(=O)c2cc(NC(=O)CCNC(=O)c3nc(NC(=O)CCCNC(=O)c4cc(NC(=O)c5nc(NC(=O)CCNC(=O)c6cc(NC(=O)c7nccn7C)cn6C)cn5C)cn4CCCCCCN=[N+]=[N-])cn3C)cn2C)c[nH]1` [Compound B-373], the pEC50 (in the assay on F35T cells; in assay [1]) was < 6.00 throughout.

`CCOC(=O)c1nc(NC(=O)c2cc(NC(=O)CCNC(=O)c3nc(NC(=O)CCCNC(=O)c4cc(NC(=O)c5nc(NC(=O)CCNC(=O)c6cc(NC(=O)c7nccn7C)cn6C)cn5C)cn4CCCCCCn4cc(COCCOCCOCCOC)nn4)cn3C)cn2C)cn1C` [Compound B-374]: the pEC50 (in the assay with F35T cells; in assay [1]) was < 6.00 throughout.

`CCOC(=O)c1nc(NC(=O)c2cc(NC(=O)CCNC(=O)c3nc(NC(=O)CCCNC(=O)c4cc(NC(=O)c5nc(NC(=O)CCNC(=O)c6cc(NC(=O)c7nccn7C)cn6C)cn5C)cn4CCCCCCn4nnc5c4-c4ccccc4N(C(=O)CCC(=O)NCCOCCOCCCCCCCl)Cc4ccccc4-5)cn3C)cn2C)cn1C` [Compound B-375]: the pEC50 (in the assay with F35T cells; in assay [1]) was < 6.00 throughout.

Regarding `CCCNC(=O)c1nc(NC(=O)c2cc(NC(=O)CCNC(=O)c3nc(NC(=O)CCCNC(=O)c4cc(NC(=O)c5nc(NC(=O)CCNC(=O)c6cc(NC(=O)c7nccn7C)cn6C)cn5C)cn4CCCCCCn4cc(COCCOCCOCCOC)nn4)cn3C)cn2C)cn1C` [Compound B-376], the pEC50 in the assay on F35T cells was 6.30 to 7.00; in assay [1] it was < 6.00.

In the case of `Cn1cc(NC(=O)c2nc(NC(=O)CCNC(=O)c3cc(NC(=O)c4nccn4C)cn3C)cn2C)cc1C(=O)NCCCC(=O)Nc1cn(C)c(C(=O)NCCC(=O)Nc2cc(C(=O)Nc3cn(C)c(C(=O)NCCC#N)n3)n(C)c2)n1` [Compound B-377], the pEC50 was > 7.00 with F35T cells and 6.30 to 7.00 in assay [1].

Consider `Cn1cc(NC(=O)c2nc(NC(=O)CCNC(=O)c3cc(NC(=O)c4nccn4C)cn3C)cn2C)cc1C(=O)NCCCC(=O)Nc1cn(C)c(C(=O)NCCC(=O)Nc2cc(C(=O)Nc3cn(C)c(C(=O)NCCC(=O)N4CCC(C#CC#CC5CCN(C(=O)OC(C)(C)C)CC5)CC4)n3)n(C)c2)n1` [Compound B-378, Tert-butyl 4-[4-(1-{3-[(1-methyl-4-{1-methyl-4-[3-({1-methyl-4-[4-({1-methyl-4-[1-methyl-4-(3-{[1-methyl-4-(1-methylimidazole-2-amido)pyrrol-2-yl]formamido}propanamido)imidazole-2-amido]pyrrol-2-yl}formamido)butanamido]imidazol-2-yl}formamido)propanamido]pyrrole-2-amido}imidazol-2-yl)formamido]propanoyl}piperidin-4-yl)buta-1,3-diyn-1-yl]piperidine-1-carboxylate], for which the pEC50 in the assay on F35T cells is 6.30 to 7.00; in assay [1], < 6.00.

On to `CC(=O)N1CCC(C#CC#CC2CCN(C(=O)CCNC(=O)c3nc(NC(=O)c4cc(NC(=O)CCNC(=O)c5nc(NC(=O)CCCNC(=O)c6cc(NC(=O)c7nc(NC(=O)CCNC(=O)c8cc(NC(=O)c9nccn9C)cn8C)cn7C)cn6C)cn5C)cn4C)cn3C)CC2)CC1` [Compound B-379], for which the pEC50 in the assay with F35T cells is > 7.00; in assay [1] it was 6.30 to 7.00.

As for `Cn1cc(NC(=O)c2nc(NC(=O)CCNC(=O)c3cc(NC(=O)c4nccn4C)cn3C)cn2C)cc1C(=O)NCCCC(=O)Nc1cn(C)c(C(=O)NCCC(=O)Nc2cc(C(=O)Nc3cn(C)c(C(=O)NCCC(=O)N4CCC(C#CC#CC5CCOCC5)CC4)n3)n(C)c2)n1` [Compound B-380], the pEC50 (in the assay on F35T cells; in assay [1]) was > 7.00 in each case.

As to `CC#CC#CC1CCN(C(=O)CCNC(=O)c2nc(NC(=O)c3cc(NC(=O)CCNC(=O)c4nc(NC(=O)CCCNC(=O)c5cc(NC(=O)c6nc(NC(=O)CCNC(=O)c7cc(NC(=O)c8nccn8C)cn7C)cn6C)cn5C)cn4C)cn3C)cn2C)CC1` [Compound B-381], the pEC50 (in the assay on F35T cells; in assay [1]) was 6.30 to 7.00 in each case.

Consider `Cn1cc(NC(=O)c2nc(NC(=O)CCNC(=O)c3cc(NC(=O)c4nccn4C)cn3C)cn2C)cc1C(=O)NCCCC(=O)Nc1cn(C)c(C(=O)NCCC(=O)Nc2cc(C(=O)Nc3cn(C)c(C(=O)NCCCN(CC#Cc4cccc(C(=O)O)c4)CCCN)n3)n(C)c2)n1` [Compound B-383], for which the pEC50 is > 7.00 in the assay with F35T cells and < 6.00 in assay [1].

In the case of `Cn1cc(NC(=O)c2nc(NC(=O)CCNC(=O)c3cc(NC(=O)c4nccn4C)cn3C)cn2C)cc1C(=O)NCCCC(=O)Nc1cn(C)c(C(=O)NCCC(=O)Nc2cc(C(=O)Nc3cn(C)c(C(=O)NCCCN(CC#Cc4ccc(C(=O)O)cc4)CCCN)n3)n(C)c2)n1` [Compound B-384], the negative-log EC50 (pEC50) (in the assay on F35T cells; in assay [1]) was 6.30 to 7.00 in each case.

Consider `Cn1cc(NC(=O)c2nc(NC(=O)CCNC(=O)c3cc(NC(=O)c4nccn4C)cn3C)cn2C)cc1C(=O)NCCCC(=O)Nc1cn(C)c(C(=O)NCCC(=O)Nc2cc(C(=O)Nc3cn(C)c(C(=O)NCCC(=O)N4CCC(C#CC#CC5CCCCC5)CC4)n3)n(C)c2)n1` [Compound B-385], for which the pEC50 in the assay on F35T cells is 6.30 to 7.00; in assay [1], < 6.00.

Regarding `Cn1cc(NC(=O)c2nc(NC(=O)CCNC(=O)c3cc(NC(=O)c4nccn4C)cn3C)cn2C)cc1C(=O)NCCCC(=O)Nc1cn(C)c(C(=O)NCCC(=O)Nc2cc(C(=O)Nc3cn(C)c(C(=O)NCCCN(C(=O)OC(C)(C)C)C(CO)CO)n3)n(C)c2)n1` [Compound B-390], the pEC50 (in the assay with F35T cells; in assay [1]) was 6.30 to 7.00 each time.

Turning to `Cn1cc(NC(=O)c2nc(NC(=O)CCNC(=O)c3cc(NC(=O)c4nccn4C)cn3C)cn2C)cc1C(=O)NCCCC(=O)Nc1cn(C)c(C(=O)NCCC(=O)Nc2cc(C(=O)Nc3cn(C)c(C(=O)NCCC(=O)NC4COP(=O)(Oc5ccccc5Cl)OC4)n3)n(C)c2)n1` (centres unmarked) [Compound B-391], the EC50 (with F35T cells; in assay [1]) was > 1000 nM throughout.

As for `Cn1cc(NC(=O)c2nc(NC(=O)CCNC(=O)c3cc(NC(=O)c4nccn4C)cn3C)cn2C)cc1C(=O)NCCCC(=O)Nc1cn(C)c(C(=O)NCCC(=O)Nc2cc(C(=O)Nc3cn(C)c(C(=O)NCCC(=O)NC4COP(=O)(O)OC4)n3)n(C)c2)n1` (centres unmarked) [Compound B-392], the negative-log EC50 (pEC50) with F35T cells is < 6.00; in assay [1], 6.00 to 6.30.

Turning to `Cn1cc(NC(=O)c2nc(NC(=O)CCNC(=O)c3cc(NC(=O)c4nccn4C)cn3C)cn2C)cc1C(=O)NCCCC(=O)Nc1cn(C)c(C(=O)NCCC(=O)Nc2cc(C(=O)Nc3cn(C)c(C(=O)NCCC(=O)NC(CO)COP(=O)(O)Oc4ccccc4Cl)n3)n(C)c2)n1` (centres unmarked) [Compound B-394], the EC50 in the assay on F35T cells lay within 500 to 1000 nM; in assay [1], 100 to 500 nM.

In the case of `CCOC(=O)CCNC(=O)c1nc(NC(=O)c2cc(NC(=O)CCNC(=O)c3nc(NC(=O)CCCNC(=O)c4cc(NC(=O)c5nc(NC(=O)CCNC(=O)c6cc(NC(=O)c7nccn7C)cn6C)cn5C)c[nH]4)cn3C)cn2C)cn1C` [Compound B-395], the pEC50 in the assay on F35T cells was 6.30 to 7.00; in assay [1], 6.00 to 6.30.

With `CCCNC(=O)CCNC(=O)c1nc(NC(=O)c2cc(NC(=O)CCNC(=O)c3nc(NC(=O)CCCNC(=O)c4cc(NC(=O)c5nc(NC(=O)CCNC(=O)c6cc(NC(=O)c7nccn7C)cn6C)cn5C)c[nH]4)cn3C)cn2C)cn1C` [Compound B-396], the pEC50 (with F35T cells; in assay [1]) was 6.30 to 7.00 throughout.

Take `CCCNC(=O)CCNC(=O)c1nc(NC(=O)c2cc(NC(=O)CCNC(=O)c3nc(NC(=O)CCCNC(=O)c4cc(NC(=O)c5nc(NC(=O)CCNC(=O)c6cc(NC(=O)c7nccn7C)cn6C)cn5C)cn4CCCCCNC(=O)c4ccccc4)cn3C)cn2C)cn1C` [Compound B-397]: the pEC50 (in the assay on F35T cells; in assay [1]) was 6.30 to 7.00 each time.

In the case of `CCCNC(=O)CCNC(=O)c1nc(NC(=O)c2cc(NC(=O)CCNC(=O)c3nc(NC(=O)CCCNC(=O)c4cc(NC(=O)c5nc(NC(=O)CCNC(=O)c6cc(NC(=O)c7nccn7C)cn6C)cn5C)cn4CCCCCNC(=O)C(C)(C)C)cn3C)cn2C)cn1C` [Compound B-398], the pEC50 (in the assay on F35T cells; in assay [1]) was 6.30 to 7.00 each time.

On to `C=C(NCCC(=O)Nc1cc(C(=O)Nc2cn(C)c(C(=O)NCCC(=O)NCCC)n2)n(C)c1)c1nc(NC(=O)CCCNC(=O)c2cc(NC(=O)c3nc(NC(=O)CCNC(=O)c4cc(NC(=O)c5nccn5C)cn4C)cn3C)cn2CCCNC(=O)c2ccccc2)cn1C` [Compound B-399], for which the pEC50 in the assay on F35T cells is > 7.00; in assay [1] it was 6.00 to 6.30.

The term pEC50 denotes −log10 of the EC50, conventionally taken in molar units. One may read the EC50 as the concentration that produces a half-maximal response.
